target: NLRP3 inflammasome (Mus musculus, UniProt Q8R4B8); assay: IL-1β release from J774A.1 cells upon LPS/ATP stimulation (ELISA)
Sequence (Q8R4B8 whole entry): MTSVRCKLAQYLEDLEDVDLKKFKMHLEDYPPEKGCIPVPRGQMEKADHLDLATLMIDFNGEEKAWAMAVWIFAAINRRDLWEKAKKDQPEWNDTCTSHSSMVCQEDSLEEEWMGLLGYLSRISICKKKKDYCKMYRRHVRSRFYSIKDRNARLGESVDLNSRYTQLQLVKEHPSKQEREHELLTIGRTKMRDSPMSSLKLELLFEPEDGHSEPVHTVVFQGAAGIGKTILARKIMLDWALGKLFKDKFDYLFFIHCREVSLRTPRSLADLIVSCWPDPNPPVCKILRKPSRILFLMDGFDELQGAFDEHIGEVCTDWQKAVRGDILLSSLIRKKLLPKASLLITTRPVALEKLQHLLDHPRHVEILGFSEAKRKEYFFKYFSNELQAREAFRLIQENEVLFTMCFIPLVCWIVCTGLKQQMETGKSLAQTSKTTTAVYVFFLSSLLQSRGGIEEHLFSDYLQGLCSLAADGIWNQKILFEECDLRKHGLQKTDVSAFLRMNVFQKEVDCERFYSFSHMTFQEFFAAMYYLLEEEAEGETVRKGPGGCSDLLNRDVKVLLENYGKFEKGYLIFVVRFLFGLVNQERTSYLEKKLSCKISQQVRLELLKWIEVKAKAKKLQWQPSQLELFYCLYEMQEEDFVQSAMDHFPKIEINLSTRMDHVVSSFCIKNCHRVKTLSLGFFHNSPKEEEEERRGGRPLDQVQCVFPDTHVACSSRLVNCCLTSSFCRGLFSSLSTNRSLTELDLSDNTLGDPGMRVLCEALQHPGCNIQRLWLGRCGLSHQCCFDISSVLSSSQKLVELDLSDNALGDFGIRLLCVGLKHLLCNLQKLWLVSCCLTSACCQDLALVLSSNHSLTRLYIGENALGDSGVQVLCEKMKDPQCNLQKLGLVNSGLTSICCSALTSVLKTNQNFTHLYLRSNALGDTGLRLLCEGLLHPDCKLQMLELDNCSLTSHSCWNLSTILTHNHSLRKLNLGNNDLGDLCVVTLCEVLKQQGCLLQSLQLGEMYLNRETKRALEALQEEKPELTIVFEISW
Protocol: Next, test compounds were added for 30 min. ATP (5 mM) was added at the same time when compounds were added to induce NLRP3 inflammasome activation. After 30 min, the supernatants were collected and the level of IL-1β was measured with a mouse IL-1β ELISA kit following the manufacturer's instructions. Primary peritoneal macrophages were similarly treated as described with J774A.1 cell line followed by ELISA analysis for IL-β production.

IC50	Structure (SMILES)
< 1000 nM	CNS(=O)(=O)c1ccc(CCN(Cc2cc(Cl)ccc2OC)C(=O)Cc2ccccc2)cc1 [SZ-N3I-12]
1000 to 10000 nM	C=CCN(CCc1ccc(S(=O)(=O)NC)cc1)Cc1cc(Cl)ccc1OC [SZ-N3I-14]
1000 to 10000 nM	CCCCCC(=O)N(CCc1ccc(S(=O)(=O)NC)cc1)Cc1cc(Cl)ccc1OC [SZ-N3I-16]
1000 to 10000 nM	CCC(=O)N(CCc1ccc(S(=O)(=O)NC)cc1)Cc1cc(Cl)ccc1OC [SZ-N3I-18]
1000 to 10000 nM	CCCN(CCc1ccc(S(=O)(=O)NC)cc1)Cc1cc(Cl)ccc1OC [SZ-N3I-20]
< 1000 nM	COc1ccc(CNS(=O)(=O)c2ccc(CCN(Cc3cc(Cl)ccc3OC)C(=O)Cc3ccccc3)cc2)cc1 [SZ-N3I-22]
1000 to 10000 nM	CCOc1ccc(Cl)cc1CN(CCc1ccc(S(=O)(=O)NCc2ccc(OC)cc2)cc1)C(=O)Cc1ccccc1 [SZ-N3I-23]
< 1000 nM	CCCOc1ccc(Cl)cc1CN(CCc1ccc(S(=O)(=O)NCc2ccc(OC)cc2)cc1)C(=O)Cc1ccccc1 [SZ-N3I-24]
1000 to 10000 nM	COc1ccc(CNS(=O)(=O)c2ccc(CCN(Cc3cc(Cl)ccc3OCC3CC3)C(=O)Cc3ccccc3)cc2)cc1 [SZ-N3I-25]
< 1000 nM	C=CC(=O)N(CCc1ccc(S(=O)(=O)NCc2ccc(OC)cc2)cc1)Cc1cc(Cl)ccc1OC [SZ-N3I-26]
< 1000 nM	C=CCOc1ccc(Cl)cc1CN(CCc1ccc(S(=O)(=O)NCc2ccc(OC)cc2)cc1)C(=O)Cc1ccccc1 [SZ-N3I-27]
1000 to 10000 nM	COc1ccc(CNS(=O)(=O)c2ccc(CCN(Cc3cc(Cl)ccc3OCc3ccccc3)C(=O)Cc3ccccc3)cc2)cc1 [SZ-N3I-28]
> 30000 nM	CCCCCCCOc1ccc(Cl)cc1CN(CCc1ccc(S(=O)(=O)NCc2ccc(OC)cc2)cc1)C(=O)Cc1ccccc1 [SZ-N3I-29]
1000 to 10000 nM	CCCCN(CCCC)S(=O)(=O)c1ccc(CCN(Cc2cc(Cl)ccc2OC)C(=O)Cc2ccccc2)cc1 [SZ-N3I-30]
> 30000 nM	CCCCN(CCCC)S(=O)(=O)c1ccc(CCN(Cc2cc(Cl)ccc2OCCC)C(=O)Cc2ccccc2)cc1 [SZ-N3I-31]
1000 to 10000 nM	C=CCN(CCc1ccc(S(=O)(=O)NC)cc1)C(=O)c1cc(Cl)ccc1C(=O)c1ccccc1 [SZ-N3I-32]
1000 to 10000 nM	CNS(=O)(=O)c1cc(CCNC(=O)c2cc(Cl)ccc2OC)co1 [SZ-N3I-33]
< 1000 nM	CCCOc1ccc(Cl)cc1CN(CCc1ccc(C(=O)OC)cc1)C(=O)Cc1ccccc1 [SZ-N3I-35]
1000 to 10000 nM	CCCOc1ccc(Cl)cc1CN(CCc1ccc(C(=O)NC)cc1)C(=O)Cc1ccccc1 [SZ-N3I-36]
< 1000 nM	C#CCNC(=O)c1ccc(CCN(Cc2cc(Cl)ccc2OCCC)C(=O)Cc2ccccc2)cc1 [SZ-N3I-37]
< 1000 nM	CCCCN(CCCC)C(=O)c1ccc(CCN(Cc2cc(Cl)ccc2OCCC)C(=O)Cc2ccccc2)cc1 [SZ-N3I-38]
< 1000 nM	CCCOc1ccc(Cl)cc1CN(CCc1ccc(C(=O)NCc2ccc(OC)cc2)cc1)C(=O)Cc1ccccc1 [SZ-N3I-39]
1000 to 10000 nM	CCCOc1ccc(Cl)cc1CN(CCc1ccc(C(=O)OC)cc1)C(=O)Cc1ccsc1 [SZ-N3I-60]
< 1000 nM	C#CCNC(=O)c1ccc(CCN(Cc2cc(Cl)ccc2OCCC)C(=O)Cc2ccsc2)cc1 [SZ-N3I-61]
1000 to 10000 nM	COc1ccc(Cl)cc1C(=O)NCCc1ccc(S(=O)(=O)NCCOCCOCCCCCCCl)cc1 [SZ-N3I-62]
< 1000 nM	O=C(NCCc1ccc(S(=O)(=O)NCc2ccccc2)cc1)c1cc(Cl)ccc1C(=O)c1ccccc1 [SZ-N3I-63]

IC50	Structure (SMILES)
1000 to 10000 nM	O=C(NCCc1ccc(S(=O)(=O)N2CCCC2)cc1)c1cc(Cl)ccc1C(=O)c1ccccc1 [SZ-N3I-64]
1000 to 10000 nM	O=C(NCCc1ccc(S(=O)(=O)NCc2ccccc2)cc1)c1cc(Cl)ccc1C(O)c1ccccc1 (stereo not drawn) [SZ-N3I-65]
1000 to 10000 nM	O=C(NCCc1ccc(S(=O)(=O)N2CCCC2)cc1)c1cc(Cl)ccc1C(O)c1ccccc1 (stereo not drawn) [SZ-N3I-66]
1000 to 10000 nM	C#CCNS(=O)(=O)c1ccc(CCN(CCCCC)Cc2cc(Cl)ccc2OCCC)cc1 [SZ-N3I-67]
1000 to 10000 nM	C#CCNS(=O)(=O)c1ccc(CCN(Cc2cc(Cl)ccc2OCCC)C(C)C)cc1 [SZ-N3I-68]
1000 to 10000 nM	CCCOc1ccc(Cl)cc1CN(CCc1ccc(S(=O)(=O)N2CCNCC2)cc1)C(=O)Cc1ccsc1 [SZ-N3I-69]
1000 to 10000 nM	C#CCNS(=O)(=O)c1ccc(CCN(Cc2cc(Cl)ccc2OCCC)C(=O)C(N)C(C)C)cc1 (stereo not drawn) [SZ-N3I-70]
1000 to 10000 nM	C#CCNS(=O)(=O)c1ccc(CCN(Cc2cc(Cl)ccc2OCCC)C(=O)[C@@H]2CCCN2)cc1 [SZ-N3I-71]
1000 to 10000 nM	C#CCNS(=O)(=O)c1ccc(CCN(Cc2cc(Cl)ccc2OCCC)C(=O)[C@H]2CCCN2)cc1 [SZ-N3I-72]
1000 to 10000 nM	C#CCNS(=O)(=O)c1ccc(CCN(Cc2cc(Cl)ccc2OCCN2CCOCC2)C(=O)Cc2ccsc2)cc1 [SZ-N3I-73]
1000 to 10000 nM	C#CCNS(=O)(=O)c1ccc(CCN(Cc2cc(Cl)ccc2OCCO)C(=O)Cc2ccsc2)cc1 [SZ-N3I-74]
1000 to 10000 nM	C#CCNS(=O)(=O)c1ccc(CCN(Cc2cc(Cl)ccc2OCCC)C(=O)[C@H]2NCCS2)cc1 [SZ-N3I-75]
1000 to 10000 nM	C#CCNS(=O)(=O)c1ccc(CCN(Cc2cc(Cl)ccc2OCCC)C(=O)[C@H](N)Cc2ccccc2)cc1 [SZ-N3I-77]
< 1000 nM	C#CCNS(=O)(=O)c1ccc(CCN(Cc2cc(Cl)ccc2OCCC)C(=O)[C@@H](N)Cc2cccs2)cc1 [SZ-N3I-78]
< 1000 nM	C#CCNS(=O)(=O)c1ccc(CCN(Cc2cc(Cl)ccc2OCCC)C(=O)[C@@H](N)Cc2ccsc2)cc1 [SZ-N3I-79]
< 1000 nM	CCCOc1ccc(Cl)cc1CN(CCc1ccc(S(=O)(=O)N2CCOCC2)cc1)C(=O)Cc1ccsc1 [SZ-N3I-80]
< 1000 nM	C#CCNS(=O)(=O)c1ccc(CCN(Cc2cc(Cl)ccc2O)C(=O)Cc2ccsc2)cc1 [SZ-N3I-81]
< 1000 nM	C#CCCC1(CCOc2ccc(Cl)cc2CN(CCc2ccc(S(=O)(=O)NCC#C)cc2)C(=O)Cc2ccsc2)N=N1 [SZ-N3I-82]
< 1000 nM	C#CCNS(=O)(=O)c1ccc(CCN(Cc2cc(Cl)ccc2[N+](=O)[O-])C(=O)Cc2ccsc2)cc1 [SZ-N3I-83]
1000 to 10000 nM	C#CCNS(=O)(=O)c1ccc(CCN(Cc2cc(Cl)ccc2OCCC)C(=O)[C@H](N)c2ccsc2)cc1 [SZ-N3I-84]
< 1000 nM	C#CCNS(=O)(=O)c1ccc(CCN(Cc2cc(Cl)ccc2OCCC)C(=O)[C@@H](N)c2ccsc2)cc1 [SZ-N3I-85]
1000 to 10000 nM	C#CCNS(=O)(=O)c1ccc(CCN(Cc2cc(Cl)ccc2N)C(=O)Cc2ccsc2)cc1 [SZ-N3I-86]
< 1000 nM	C#CCNS(=O)(=O)c1ccc(CCN(Cc2cc(Cl)ccc2[N+](=O)[O-])C(=O)[C@@H](N)Cc2cccs2)cc1 [SZ-N3I-87]
< 1000 nM	C#CCNS(=O)(=O)c1ccc(CCN(Cc2cccc3c2OCO3)C(=O)Cc2ccsc2)cc1 [SZ-N3I-88]
< 1000 nM	C#CCNS(=O)(=O)c1ccc(CCN(Cc2cc(Cl)ccc2C(F)(F)F)C(=O)Cc2ccsc2)cc1 [SZ-N3I-89]
